The source of these data is ChEMBL document CHEMBL1201862, “PubChem BioAssay data set” (2004).

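Values below derive from 48-hour exposures of cells grown in 96-well plates, with endpoints linearly interpolated between the two concentrations bracketing the appropriate inhibition level. GI50 = concentration required for 50% inhibition of growth.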 Activity calls are given as the source filed them. Rule as the data show it: active = GI50 up to about 1.1 µM and inactive = higher. A value given as a limit tells only on which side of the number the result lay.

Some test systems named below: SNB-75; SF-295; UACC-62; SF-539; Malme-3M; SK-MEL-2; LOX IMVI; OVCAR-8; NCI-H23; CAKI-1; OVCAR-3; IGROV-1; HOP-62; COLO 205; SK-MEL-28; NCI-H460; SNB-19; SN12C; MOLT-4; CCRF-CEM.
Assay in all cases: inhibition of tumour cell growth, NCI panel, 48 h

As to `O=C(O)CN1CCCC(Cc2c[nH]c3ccccc23)C1` (centres undefined), the GI50 in the experiment on SNB-75, with SF-295, in the experiment on UACC-62, in the experiment on SF-539, in the experiment on Malme-3M and in the experiment on SK-MEL-2 was > 100 µM (inactive) in each case. For the same compound, the GI50 in the experiment on LOX IMVI, with OVCAR-8, in the experiment on NCI-H23, with CAKI-1, in the experiment with OVCAR-3 and in the experiment with IGROV-1 was > 100 µM (inactive) in each case. The GI50 in the experiment on HOP-62, in the experiment with COLO 205 and in the experiment on SK-MEL-28 was > 100 µM (inactive) throughout.

Consider `O=C(c1ccccc1)c1cn(/N=C\c2ccccc2)c(=O)nc1-c1ccccc1`, for which the GI50 in the experiment with SNB-75, in the experiment on SF-295, in the experiment with UACC-62, in the experiment with SF-539, with NCI-H460 and in the experiment with Malme-3M was > 100 µM (inactive) throughout. Besides, the GI50 with SNB-19, in the experiment with SN12C, in the experiment with SK-MEL-2, in the experiment on LOX IMVI, in the experiment on OVCAR-8 and in the experiment with NCI-H23 was > 100 µM (inactive) each time. Moreover, the GI50 in the experiment with OVCAR-3 is > 100 µM (inactive); with MOLT-4, > 100 µM (inactive); in the experiment on CCRF-CEM, 70 µM (inactive); in the experiment with HOP-62, > 100 µM (inactive); with COLO 205, > 100 µM (inactive); with SK-MEL-28 it was > 100 µM (inactive).

Consider `O=C1C[C@H](c2ccccc2)C2(C(=O)c3ccccc3C2=O)[C@@H](c2ccccc2)C1`, for which the GI50 with SNB-75 is 28.4 µM (inactive); in the experiment on SF-295, 25.6 µM (inactive); with UACC-62, 11.8 µM (inactive); in the experiment with NCI-H460 it was 25.8 µM (inactive); in the experiment on Malme-3M, 36.7 µM (inactive); in the experiment with SNB-19, 23.9 µM (inactive). Further, the GI50 was 24.2 µM (inactive) in the experiment with SN12C; 12.8 µM (inactive) with SK-MEL-2; 35.6 µM (inactive) in the experiment with OVCAR-8; 32.5 µM (inactive) in the experiment with NCI-H23; 7.59 µM (inactive) in the experiment on CAKI-1; 26.9 µM (inactive) in the experiment on OVCAR-3. The GI50 in the experiment on MOLT-4 was 8.87 µM (inactive); in the experiment on CCRF-CEM it was 9.55 µM (inactive); in the experiment with IGROV-1 it was 16.3 µM (inactive); with HOP-62, 38.5 µM (inactive); with COLO 205 it was 18.4 µM (inactive); with SK-MEL-28, 19 µM (inactive).

Take `CN(C)CCN(/C(=N/c1ccccc1)N1CCCC1)c1ccccc1`: the GI50 is 49 µM (inactive) in the experiment on SNB-75; 18.4 µM (inactive) in the experiment on SF-295; 11.9 µM (inactive) with UACC-62; 42.4 µM (inactive) with NCI-H460; > 100 µM (inactive) with Malme-3M; > 100 µM (inactive) in the experiment on SNB-19. Besides, the GI50 in the experiment with SN12C was 50.5 µM (inactive); in the experiment on SK-MEL-2, > 100 µM (inactive); in the experiment on LOX IMVI, 4.06 µM (inactive); with OVCAR-8 it was 68.7 µM (inactive); with NCI-H23 it was 31 µM (inactive); in the experiment with CAKI-1, > 100 µM (inactive). Moreover, the GI50 is 37.3 µM (inactive) in the experiment on OVCAR-3; 4.92 µM (inactive) with MOLT-4; 8.69 µM (inactive) with CCRF-CEM; 13.7 µM (inactive) in the experiment with IGROV-1; 23.4 µM (inactive) in the experiment on HOP-62; 16.9 µM (inactive) in the experiment with COLO 205. In addition, the GI50 in the experiment on SK-MEL-28 was > 100 µM (inactive).

Turning to `CC1=C(C(=O)N[C@@H](CC(C)C)C(=O)O)N2C(=O)[C@@H](NC(=O)C(N)c3ccccc3)[C@H]2SC1` (some centres undefined), the GI50 is > 100 µM (inactive) in the experiment with SNB-75; > 100 µM (inactive) in the experiment with SF-295; 79.3 µM (inactive) in the experiment with UACC-62; > 100 µM (inactive) in the experiment with SF-539; > 100 µM (inactive) in the experiment on NCI-H460; > 100 µM (inactive) with Malme-3M. Further, the GI50 with SNB-19, with SN12C, in the experiment on SK-MEL-2, in the experiment on LOX IMVI, in the experiment on OVCAR-8 and in the experiment with CAKI-1 was > 100 µM (inactive) in each case. The GI50 with OVCAR-3, in the experiment on MOLT-4, with CCRF-CEM, in the experiment with IGROV-1, in the experiment with COLO 205 and with SK-MEL-28 was > 100 µM (inactive) in each case.

As for `CC(=O)N/C(=C\c1ccc(/C=C(\NC(C)=O)C2=NC3C(=O)c4ccccc4C(=O)C3N2)cc1)C1=NC2C(=O)c3ccccc3C(=O)C2N1` (centres undefined), the GI50 with SNB-75 was 6.98 µM (inactive); in the experiment on SF-295, 68.2 µM (inactive); in the experiment on UACC-62 it was 25.8 µM (inactive); with SF-539 it was 76.7 µM (inactive); with NCI-H460 it was 12.8 µM (inactive); with SNB-19, 19 µM (inactive). The GI50 in the experiment on SN12C is 22.6 µM (inactive); with LOX IMVI, 6.92 µM (inactive); in the experiment on OVCAR-8, 22.4 µM (inactive); with NCI-H23, 26.7 µM (inactive); in the experiment with CAKI-1, 3.27 µM (inactive); in the experiment with OVCAR-3 it was 49.3 µM (inactive). The GI50 in the experiment with MOLT-4 was 2.44 µM (inactive); with CCRF-CEM, 0.865 µM (active); in the experiment with IGROV-1, 8.47 µM (inactive); in the experiment on COLO 205 it was 93.1 µM (inactive); in the experiment on SK-MEL-28, > 100 µM (inactive).

In the case of `O=C1c2ccccc2C(=O)c2c1ccc1c2N=C(c2ccc(F)cc2)CC(c2ccc(Cl)c(Cl)c2)N1` (centres undefined), the GI50 in the experiment on SNB-75 was 20.5 µM (inactive); in the experiment with SF-295 it was 14.6 µM (inactive); in the experiment with UACC-62, 12.1 µM (inactive); with SF-539, 19.3 µM (inactive); in the experiment on NCI-H460, 16.9 µM (inactive); with SNB-19, 13.1 µM (inactive). Further, the GI50 in the experiment with SN12C was 17.3 µM (inactive); in the experiment with SK-MEL-2, 14 µM (inactive); with LOX IMVI it was 3.94 µM (inactive); with OVCAR-8, 13.4 µM (inactive); with NCI-H23, 16.6 µM (inactive); in the experiment on CAKI-1, 3.27 µM (inactive). For the same compound, the GI50 in the experiment on MOLT-4 was 7.43 µM (inactive); in the experiment on CCRF-CEM, 2.13 µM (inactive); in the experiment with IGROV-1, 10.3 µM (inactive); in the experiment on HOP-62, 22 µM (inactive); with COLO 205 it was 18.1 µM (inactive); with SK-MEL-28 it was 19.3 µM (inactive).

Take `CC(C)C1CNC(=O)C2(/C=N/C(C(C)C)CNC(=O)C3(/C=N/1)CCCO3)CCCO2` (centres undefined): the GI50 with SNB-75, with SF-295, with UACC-62, in the experiment on SF-539, in the experiment on Malme-3M and in the experiment with SNB-19 was > 10 µM (inactive) throughout. Besides, the GI50 in the experiment on SN12C, in the experiment with OVCAR-8, with NCI-H23, with CAKI-1, with OVCAR-3 and in the experiment with MOLT-4 was > 10 µM (inactive) in each case. Besides, the GI50 in the experiment on CCRF-CEM, with IGROV-1, with HOP-62, with COLO 205 and in the experiment with SK-MEL-28 was > 10 µM (inactive) each time.

Regarding `CCC1C[N+]23CCc4c([nH]c5ccccc45)C2CC1CC3` (centres undefined), the GI50 was 98.9 µM (inactive) in the experiment with SNB-75; > 100 µM (inactive) in the experiment on SF-295; > 100 µM (inactive) in the experiment on UACC-62; 49.4 µM (inactive) with NCI-H460; 33.7 µM (inactive) in the experiment with Malme-3M; 76.4 µM (inactive) in the experiment on SN12C. In addition, the GI50 with SK-MEL-2 is > 100 µM (inactive); in the experiment with LOX IMVI it was 68.1 µM (inactive); with OVCAR-8, 81.3 µM (inactive); in the experiment on NCI-H23, 69.2 µM (inactive); with CAKI-1, 49.1 µM (inactive); in the experiment with OVCAR-3 it was 55.5 µM (inactive). The GI50 with MOLT-4 is 29.8 µM (inactive); with CCRF-CEM, 51.2 µM (inactive); in the experiment with IGROV-1, 91.6 µM (inactive); with HOP-62, > 100 µM (inactive); in the experiment with COLO 205, 98.4 µM (inactive); with SK-MEL-28, > 100 µM (inactive).

Regarding `Cc1cc(NS(=O)(=O)c2ccc(Nc3c4ccccc4nc4c(C(=O)N5CCN(CCO)CC5)ccc(Cl)c34)cc2)no1`, the GI50 was 29.6 µM (inactive) in the experiment with SNB-75; > 100 µM (inactive) with SF-295; 42.5 µM (inactive) in the experiment with UACC-62; > 100 µM (inactive) in the experiment with SF-539; > 100 µM (inactive) in the experiment with NCI-H460; > 100 µM (inactive) in the experiment on Malme-3M. The GI50 in the experiment with SNB-19 is > 100 µM (inactive); in the experiment with SN12C, 72.1 µM (inactive); in the experiment with SK-MEL-2, 42.1 µM (inactive); in the experiment with OVCAR-8, > 100 µM (inactive); in the experiment on NCI-H23, > 100 µM (inactive); in the experiment with CAKI-1, > 100 µM (inactive). Also, the GI50 was > 100 µM (inactive) with OVCAR-3; 36.3 µM (inactive) with MOLT-4; 28.8 µM (inactive) in the experiment with CCRF-CEM; 96.2 µM (inactive) in the experiment on IGROV-1; > 100 µM (inactive) in the experiment on HOP-62; > 100 µM (inactive) in the experiment on COLO 205. For the same compound, the GI50 in the experiment on SK-MEL-28 is > 100 µM (inactive).

For the compound `O=C1/C(=C/c2ccc(Cl)cc2)CNC/C1=C\c1ccc(Cl)cc1`, the GI50 is 4.36 µM (inactive) in the experiment on SNB-75; 2.43 µM (inactive) in the experiment on UACC-62; 1.15 µM (inactive) in the experiment with SF-539; 1.35 µM (inactive) with NCI-H460; 6.08 µM (inactive) with Malme-3M; 1.82 µM (inactive) in the experiment with SNB-19. For the same compound, the GI50 was 2.59 µM (inactive) in the experiment on SN12C; 1.57 µM (inactive) with LOX IMVI; 2.04 µM (inactive) in the experiment on OVCAR-8; 1.89 µM (inactive) in the experiment on NCI-H23; 1.58 µM (inactive) with CAKI-1; 2.01 µM (inactive) with OVCAR-3. For the same compound, the GI50 in the experiment on MOLT-4 was 3.72 µM (inactive); with IGROV-1, 1.58 µM (inactive); in the experiment with HOP-62, 2.43 µM (inactive); with COLO 205 it was 2.14 µM (inactive); in the experiment on SK-MEL-28 it was 1.5 µM (inactive).
